Reference: patent US9801815B2, “Galenical form for the administration of triptans by buccal transmucous means” (priority 2008, dated 2017)

Key:
[1] = intra-nasal, 20 mg (nasal spray, Imigrane); cited from earlier work
[2] = dissolution of Sumatriptan in ethanol; type: physicochemical; conditions: 2 mg, 4 mg or 6 mg of Sumatriptan for 0.75 ml of ethanol at 35%
Description: This coefficient can be modulated based on the degree of alcohol and the water/ethanol ratio that is used.

[3] = administered via the digestive tract; cited from earlier work
[4] = system: acute Cluster Headache attack; conditions: subcutaneous injection, single dosage of 6 mg, mean delay of 15 minutes; cited from earlier work

dissolution in ethanol [2]: complete dissolution
Compound: CNS(=O)(=O)Cc1ccc2[nH]cc(CCN(C)C)c2c1 [Sumatriptan]
mean bioavailability of the administered dose [1]: ≤ 10%
mean volume of theoretical distribution in the human body [3]: 200 L
residual bioavailability [3]: less than 14 % of the administered dose
remission of the acute Cluster Headache attack [4]: 75%
